Data reported in ChEMBL document CHEMBL1909046, “DrugMatrix in vitro pharmacology data”.

What was measured:
[1] = DRUGMATRIX: ATPase, Na+/K+ enzyme inhibition (substrate: ATP); format: tissue-based, Sus scrofa, Heart; conditions: Not Active = under 50% inhibition at 10 µM
Cytochrome P450 2E1 = Cytochrome P450 2E1 (Homo sapiens, UniProt P05181); conditions: bti-tn-5b1-4; note: in other assays of this panel Not Active means under 50% inhibition at 10 µM
[2] = target: T1, C-X-C chemokine receptor type 1 (Homo sapiens, UniProt P25024); note: in other assays of this panel Not Active means under 50% inhibition at 10 µM
T1 sequence (P25024 whole entry): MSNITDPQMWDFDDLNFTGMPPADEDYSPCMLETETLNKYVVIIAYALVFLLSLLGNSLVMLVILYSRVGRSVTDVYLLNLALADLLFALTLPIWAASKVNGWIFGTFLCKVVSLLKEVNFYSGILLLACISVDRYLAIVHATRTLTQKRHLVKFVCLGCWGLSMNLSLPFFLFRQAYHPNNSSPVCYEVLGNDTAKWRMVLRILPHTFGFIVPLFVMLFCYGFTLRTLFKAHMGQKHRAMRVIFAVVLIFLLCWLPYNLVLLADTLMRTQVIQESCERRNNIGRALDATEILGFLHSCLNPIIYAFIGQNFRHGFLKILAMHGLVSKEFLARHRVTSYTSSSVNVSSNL

Mu-type opioid receptor = Mu-type opioid receptor (Homo sapiens, UniProt P35372); experiment: DRUGMATRIX: Opiate mu (OP3, MOP) radioligand binding (ligand: [3H] Diprenorphine); format: cell membranes, CHO-K1, Membrane; conditions: cho-k1; Not Active = under 50% inhibition at 10 µM
Sequence of Mu-type opioid receptor (P35372 whole entry): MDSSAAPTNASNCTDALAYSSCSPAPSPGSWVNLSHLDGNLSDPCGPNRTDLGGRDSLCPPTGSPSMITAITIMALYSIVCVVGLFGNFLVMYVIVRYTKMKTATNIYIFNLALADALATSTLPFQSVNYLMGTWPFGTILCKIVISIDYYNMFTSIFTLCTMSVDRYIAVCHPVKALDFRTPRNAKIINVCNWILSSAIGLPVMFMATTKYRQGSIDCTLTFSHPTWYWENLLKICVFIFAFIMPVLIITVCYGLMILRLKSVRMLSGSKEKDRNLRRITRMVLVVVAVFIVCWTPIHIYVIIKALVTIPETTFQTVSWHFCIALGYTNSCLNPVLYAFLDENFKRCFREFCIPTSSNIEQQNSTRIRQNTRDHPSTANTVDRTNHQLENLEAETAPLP

[3] = DRUGMATRIX: Sigma2 radioligand binding (ligand: [3H] Ifenprodil); format: cell membranes, Rattus norvegicus, Wistar, Brain, Membrane; conditions: Not Active = under 50% inhibition at 10 µM
[4] = target: T2, Angiotensin-converting enzyme (Oryctolagus cuniculus, UniProt P12822); format: tissue-based, Lung;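 note: enzymatic inhibition of angiotensin-converting enzyme measured with FAPGG as the substrate; in other assays of this panel Not Active means under 50% inhibition at 10 µM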
T2 sequence (P12822 whole entry): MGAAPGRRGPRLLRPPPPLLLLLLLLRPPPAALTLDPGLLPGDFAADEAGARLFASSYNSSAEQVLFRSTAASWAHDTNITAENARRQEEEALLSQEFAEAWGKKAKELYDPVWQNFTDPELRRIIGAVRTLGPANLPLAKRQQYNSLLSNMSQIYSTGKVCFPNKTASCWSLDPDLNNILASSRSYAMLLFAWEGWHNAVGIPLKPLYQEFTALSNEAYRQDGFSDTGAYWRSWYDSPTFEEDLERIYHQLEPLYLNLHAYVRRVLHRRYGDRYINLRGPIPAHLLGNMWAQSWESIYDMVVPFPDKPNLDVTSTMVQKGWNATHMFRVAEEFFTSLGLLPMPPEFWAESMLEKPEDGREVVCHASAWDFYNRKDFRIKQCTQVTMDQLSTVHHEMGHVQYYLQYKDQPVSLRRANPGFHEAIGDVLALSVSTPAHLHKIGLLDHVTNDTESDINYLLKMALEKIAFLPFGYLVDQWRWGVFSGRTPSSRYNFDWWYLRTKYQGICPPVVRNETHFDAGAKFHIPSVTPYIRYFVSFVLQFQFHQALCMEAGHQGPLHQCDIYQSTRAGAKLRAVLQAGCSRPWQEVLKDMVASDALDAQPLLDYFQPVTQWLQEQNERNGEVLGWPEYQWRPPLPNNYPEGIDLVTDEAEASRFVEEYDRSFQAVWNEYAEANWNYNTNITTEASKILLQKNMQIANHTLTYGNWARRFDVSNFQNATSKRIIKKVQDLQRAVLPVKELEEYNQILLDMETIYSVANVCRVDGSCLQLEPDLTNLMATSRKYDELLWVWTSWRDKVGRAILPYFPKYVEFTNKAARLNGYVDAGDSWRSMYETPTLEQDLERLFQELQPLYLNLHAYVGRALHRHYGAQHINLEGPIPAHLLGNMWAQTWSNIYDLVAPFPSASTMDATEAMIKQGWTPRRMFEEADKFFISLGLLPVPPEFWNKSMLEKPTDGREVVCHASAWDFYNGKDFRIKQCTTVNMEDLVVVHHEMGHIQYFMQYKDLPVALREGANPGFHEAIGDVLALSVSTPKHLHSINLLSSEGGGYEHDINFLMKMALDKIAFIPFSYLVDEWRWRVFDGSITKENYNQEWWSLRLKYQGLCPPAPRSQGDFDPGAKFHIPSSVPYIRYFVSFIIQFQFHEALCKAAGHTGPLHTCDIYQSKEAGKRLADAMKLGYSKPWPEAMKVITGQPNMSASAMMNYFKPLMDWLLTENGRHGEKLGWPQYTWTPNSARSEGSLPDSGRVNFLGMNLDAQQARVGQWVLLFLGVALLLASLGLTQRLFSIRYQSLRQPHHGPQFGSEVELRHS

Calcitonin receptor = target: T3, Calcitonin receptor (Homo sapiens, UniProt P30988); format: cell membranes, Membrane; conditions: t47d; note: in other assays of this panel Not Active means under 50% inhibition at 10 µM
T3 sequence (P30988 whole entry): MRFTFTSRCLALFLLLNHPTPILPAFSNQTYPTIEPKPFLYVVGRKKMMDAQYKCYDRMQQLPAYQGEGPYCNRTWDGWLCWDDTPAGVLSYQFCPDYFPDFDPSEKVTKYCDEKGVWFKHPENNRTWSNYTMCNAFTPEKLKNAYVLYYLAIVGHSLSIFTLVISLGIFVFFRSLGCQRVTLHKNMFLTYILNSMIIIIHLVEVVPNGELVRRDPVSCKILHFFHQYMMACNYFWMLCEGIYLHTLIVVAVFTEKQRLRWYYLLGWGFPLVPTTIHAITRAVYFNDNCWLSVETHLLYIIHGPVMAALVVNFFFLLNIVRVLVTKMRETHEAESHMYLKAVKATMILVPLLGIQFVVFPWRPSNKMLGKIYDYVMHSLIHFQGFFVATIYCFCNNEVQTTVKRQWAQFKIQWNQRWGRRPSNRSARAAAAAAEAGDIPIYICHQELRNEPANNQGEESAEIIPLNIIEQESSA

[5] = DRUGMATRIX: Purinergic P2X radioligand binding (ligand: [3H] alpha, beta-Methylene-ATP); format: cell membranes, Oryctolagus cuniculus, New Zealand albino, Urinary bladder, Membrane; conditions: Not Active = under 50% inhibition at 10 µM

Sequence of Cytochrome P450 2E1 (P05181 whole entry): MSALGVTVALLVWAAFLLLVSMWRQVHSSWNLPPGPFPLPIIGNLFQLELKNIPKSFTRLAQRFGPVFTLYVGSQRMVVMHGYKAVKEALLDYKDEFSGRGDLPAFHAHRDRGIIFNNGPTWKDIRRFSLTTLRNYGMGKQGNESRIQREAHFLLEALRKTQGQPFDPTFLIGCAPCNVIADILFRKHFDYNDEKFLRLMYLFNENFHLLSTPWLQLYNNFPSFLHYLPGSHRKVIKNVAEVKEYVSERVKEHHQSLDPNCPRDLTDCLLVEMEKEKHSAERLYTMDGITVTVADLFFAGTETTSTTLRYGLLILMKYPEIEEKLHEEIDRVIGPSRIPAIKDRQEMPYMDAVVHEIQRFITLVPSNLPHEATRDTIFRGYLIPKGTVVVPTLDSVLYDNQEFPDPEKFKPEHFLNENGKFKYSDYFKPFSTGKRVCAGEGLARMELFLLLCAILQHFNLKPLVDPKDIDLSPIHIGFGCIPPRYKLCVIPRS

N#CC(C#N)=Cc1ccc(O)c(O)c1 [TYRPHOSTIN 23]
Not Active: IC50 [1] | Ki [1] | IC50 (Cytochrome P450 2E1) | Ki (Cytochrome P450 2E1) | IC50 [2] | IC50 (Mu-type opioid receptor) | IC50 [3] | Ki [3] | IC50 [4] | IC50 (Calcitonin receptor) | IC50 [5] | Ki [5]

CC[C@]1(O)C[C@H]2CN(CCc3c([nH]c4ccccc34)[C@@](C(=O)OC)(c3cc4c(cc3OC)N(C=O)[C@H]3[C@@](O)(C(=O)OC)[C@H](OC(C)=O)[C@]5(CC)C=CCN6CC[C@]43[C@@H]65)C2)C1 [VINCRISTINE]
Not Active: IC50 [1] | Ki [1] | IC50 (Cytochrome P450 2E1) | Ki (Cytochrome P450 2E1) | IC50 [2] | IC50 (Mu-type opioid receptor) | IC50 [3] | Ki [3] | IC50 [4] | IC50 (Calcitonin receptor) | IC50 [5] | Ki [5]

CCCOc1ccccc1-c1nc2nn[nH]c2c(=O)[nH]1 [ZAPRINAST]
Not Active: IC50 [1] | Ki [1] | IC50 (Cytochrome P450 2E1) | Ki (Cytochrome P450 2E1) | IC50 [2] | IC50 (Mu-type opioid receptor) | IC50 [3] | Ki [3] | IC50 [4] | IC50 (Calcitonin receptor) | IC50 [5] | Ki [5]
